# Patent US20150299648A1, “IMPROVED CULTIVATION MEDIA AND PROCESS FOR IMPROVED PROTEIN PRODUCTION BY PICHIA STRAINS” (priority 2012, published 2015)
# How the values were obtained:
# [1] = test system: P. pastrois strain yGLY21058; assay: Fermentability of sugars or sugar alcohols on M agar plate; type: cell-based, Pichia pastoris; conditions: 6 days at 30° C.
# Method: The 1 mL of RCB (Research Cell Bank in 20% of glycerol) for P. pastrois strain yGLY21058 producing glycosylated insulin precursor (GIP) was inoculated in 200 mL of Seed medium (4% glycerol, 1% yeast extract, 2% soytone, 1.34% YNB without amino acids, 0.23% K2HPO4, 1.19% KH2PO4, 8 μg/L biotin) and cultivated for 48 h at 24° C. The cell pellet was harvested by centrifugation at 4,000 rpm for 10 min and re-suspended with PBS buffer (pH 7.4) to wash the cell twice. The 0.1 mL of cell suspension with wash buffer was transferred and spread onto the minimal agar plate containing each sugar or sugar alcohol (1% w/v), which is listed in Table 1.
# YPD (1% yeast extract, 2% yeast peptone, and 1% glucose) agar plate was used for the positive control and a minimal agar plate without carbon sources (M) was used for negative control. Growth of Pichia pastoris on M agar plate containing single carbon source was categorized as no (−), slow (+), moderate (++), and fast (+++) colony formation for 6 days in Table 1.
# [2] = test system: P. pastoris YGLY21058 strain producing glycosylated insulin precursor (GIP); assay: Screening of sugars and sugar alcohols as osmoprotectants in fed-batch cultivation; type: cell-based, Pichia pastoris
# Method: The P. pastoris YGLY21058 strain was cultivated in 1 L glass bioreactors (DASGIP, Germany). For fermentation in 1 L bioreactor, a vial (1 mL) of RCB (Research Cell Bank) was inoculated into 200 mL of Seed medium in 1 L-baffled flask. The culture incubated at 24° C., while shaking on an orbital shaker at 180 rpm for 48±4 h. The bioreactor was inoculated with a 10% volumetric ratio of seed to initial BSGY medium. Cultivation conditions were following: temperature set at 24±0.5° C., pH controlled at 6.5±0.1 with 30% ammonium hydroxide, dissolved oxygen was maintained at 20% of saturation by cascading agitation rate on the addition of pure oxygen to the fixed airflow rate of 0.7 vvm. After depletion of the initial glycerol (4%), a 50% glycerol solution containing 12.5 mL/L of PTM1 salts (6.5 g FeSO4.7H2O, 2.0 g ZnCl2, 0.6 g CuSO4.5H2O, 3.0 g MnSO4.7H2O, 0.5 g CoCl2.6H2O, 0.2 g NaMoO4.2H2O, 0.2 g biotin, 80 mg NaI, 20 mg H3BO4 per L) was fed constantly at an initial rate of 0.08 h^−1 for 8 h. Induction was initiated after a 30 min starvation phase when methanol was fed. Methanol was fed constantly starting at 1.33 g/L/h under methanol limited condition. Agitation speed was changed from cascade mode with agitation speed and pure oxygen.
# For comparisons, each sugar or sugar alcohol was added at 50 g/L in initial batch medium of BSGY. In case of control without sugar supplementation (BSGY medium only), glycosylated insulin precursor (GIP) was detectable at 58 h of induction, but not detected at 80 h of induction due to most likely proteolytic degradation caused by heavy cell lysis (Lanes 1 and 2 of FIG. 2 A).
smiles,measurement,setting,value
"OC[C@@H](O)[C@@H](O[C@H]1O[C@H](CO)[C@@H](O)[C@H](O)[C@H]1O)[C@H](O)[C@@H](O)CO [Maltitol, 4-O-α-glucopyranosyl-D-sorbitol]",Fermentability category from colony formation on the plate,[1]; minimal agar plate,strict non-fermentable substrates
same,Growth on M agar,[1]; single carbon source 1% w/v,−
same,Intact insulin precursor produced,"[2]; 2% maltitol, 83 h of post-induction",intact protein was produced
same,Index of cell lysis (double stranded DNA released into culture medium),"[2]; 50 g/L in initial batch BSGY, 80 h of induction",< 1 mg DNA/L
same,Intact GIP molecule after 80 h-induction (SDS-PAGE),[2]; 50 g/L in initial batch medium of BSGY,intact GIP molecule was maintained
same,Intact GIP produced,[2]; 80 h of induction,100 mg/L
same,Robustness of Pichia production strains,[2]; methanol induction phase of cultivation,significantly improved the robustness
same,Volumetric productivity of GIP/insulin relative to control,[2]; vs control without supplementation,2 fold
